From US20260345771A1, “THERAPY COMPRISING ANTI-CD19 ANTIBODY AND EZH2 MODULATORS” (Incyte Corporation, priority 2022, published 2026)

B1: tafasitamab: humanized monoclonal antibody that targets the antigen CD19, engineered in the IgG Fc-region to enhance ADCC (antibody, chains of the INN, looked up)
heavy: EVQLVESGGGLVKPGGSLKLSCAASGYTFTSYVMHWVRQAPGKGLEWIGYINPYNDGTKYNEKFQGRVTISSDKSISTAYMELSSLRSEDTAMYYCARGTYYYGTRVFDYWGQGTLVTVSSASTKGPSVFPLAPSSKSTSGGTAALGCLVKDYFPEPVTVSWNSGALTSGVHTFPAVLQSSGLYSLSSVVTVPSSSLGTQTYICNVNHKPSNTKVDKKVEPKSCDKTHTCPPCPAPELLGGPDVFLFPPKPKDTLMISRTPEVTCVVVDVSHEDPEVQFNWYVDGVEVHNAKTKPREEQFNSTFRVVSVLTVVHQDWLNGKEYKCKVSNKALPAPEEKTISKTKGQPREPQVYTLPPSREEMTKNQVSLTCLVKGFYPSDIAVEWESNGQPENNYKTTPPMLDSDGSFFLYSKLTVDKSRWQQGNVFSCSVMHEALHNHYTQKSLSLSPG
light: DIVMTQSPATLSLSPGERATLSCRSSKSLQNVNGNTYLYWFQQKPGQSPQLLIYRMSNLNSGVPDRFSGSGSGTEFTLTISSLEPEDFAVYYCMQHLEYPITFGAGTKLEIKRTVAAPSVFIFPPSDEQLKSGTASVVCLLNNFYPREAKVQWKVDNALQSGNSQESVTEQDSKDSTYSLSSTLTLSKADYEKHKVYACEVTHQGLSSPVTKSFNRGEC

Assays:
[1] = tested on: SU-DHL-6 cells; assay: CellTiter-Glo (CTG) viability assay, SU-DHL-6; type: cell-based; settings: Homo sapiens, 168 h; SU-DHL-6, 7 days, compound alone
Method: (§1) A panel of 6 lymphoma cell lines was included in the analysis (5 DLBCL and 1 Burkitt lymphoma). All cell lines were cultured in RPMI 1640 medium (Gibco) supplemented with 10%-20% FCS (Sigma) at 37 °C in 5% CO2.
(§2) To analyze direct cytotoxic and anti-proliferative effects on target cells, cell viability assays were performed using the CellTiter-Glo Kit (Promega), a luminescence assay for determination of viable cell number based on quantification of adenosine triphosphate (ATP) levels. […] Cell densities were adjusted at days 3 and 7 during the assay to avoid overgrowth. The assay was performed in clear 48- and 96-F-well bottom plates in a final volume of 1 mL or 200 μL, respectively, in a cell incubator at 37 °C and 5% CO2. In each experiment, all test conditions were performed in triplicates.
(§3) Cell viability was analyzed according to the manufacturer's protocol using the Tecan Infinite F500 plate reader. The relative viable cell count was calculated from the measured relative luminescence units (RLU) with the following equation: […]
(§4) For graphical illustration and IC50 determination, the mean values of triplicates (viability assay) or duplicates (CD19 expression) of the individual experiments were imported into GraphPad Prism software (version 8). […] IC50 curves were determined applying a non-linear regression curve fit model (sigmoidal dose response, variable slope).

[2] = tested on: SU-DHL-4 cells; assay: CellTiter-Glo (CTG) viability assay, SU-DHL-4; type: cell-based; settings: Homo sapiens, SU-DHL-4, 168 h
Method: as §1, §2, §3, §4

[3] = tested on: WSU-DLCL2 tumor; assay: Tumor growth in WSU-DLCL2 tumor bearing CB17-SCID mice; type: in vivo
Method: The in vivo study was carried out in WSU-DLCL2 tumor bearing CB17-SCID mice. 4×10^6 WSU-DLCL2 cells (DLBCL cell line) per animal were implanted with matrigel (1:1) s.c. into the left flank of 6-8 weeks old female CB17-SCID mice. On study day 17, when a mean tumor volume of approximately 100 mm^3 was reached, animals were randomly allocated into treatment groups with 8 mice per group and treatment was started. Treatment was applied every day p.o. at 35 mg/kg or 50 mg/kg for Compound 1 (application volume: 10 mL/kg; formulation buffer: 20% propylene glycol, 10% Solutol HS15, 70% phthalate buffer) and biweekly i.v. at 3 mg/kg or 10 mg/kg for tafasitamab (application volume: 5 mL/kg; formulation buffer: PBS). Tumor volume and body weight were measured twice weekly. Mice were sacrificed when reaching a tumor volume >1500 mm^3 or latest at study end on day 69 after tumor cell implantation. Mean tumor growth curves were calculated using GraphPad Prism software (version 8.4.3).
The proof of concept in vivo study was performed in WSU-DLCL2 tumor bearing CB17-SCID mice.

Molecule	IC50 [1]	IC50 [2]	tumor growth inhibition ([3]; monotherapy 3 mg/kg i.v. BIW)	tumor growth inhibition ([3]; monotherapy 10 mg/kg i.v. BIW)
COC1CN([C@H]2CC[C@H]([C@@]3(C)Oc4c(Cl)cc(C(=O)NCc5c(SC)cc(C)[nH]c5=O)c(C)c4O3)CC2)C1 [Compound 1]	0.0038 µM	0.0171 µM	–	–
B1	–	–	did not reveal any tumor growth inhibition	did not reveal any tumor growth inhibition
